From paper PMC4077696 (PLoS Biology, 2014)
“Also recorded” adds a separate entry of the source. Counter-ions that a name gives are not always drawn.

What was measured:
[1] = test system: PfEMP1 surface expression, CS2-GFP parasites; assay: PfEMP1 (VAR2CSA) surface display on infected erythrocytes by flow cytometry with PAM1.4; assay type: cell-based, Plasmodium falciparum; settings: 15 µM 23 h or 50>15 µM
Description: As 916 treatment has adverse affects on parasites after 24 h, a sublethal dosing regime was developed (see Figure S7) to maximize the inhibitor effect while ensuring parasites remained viable 24 h postinvasion when surface-exposed PfEMP1 was measured. Treatment with >15 µM for 23 h or with 50 µM for >12 h postinvasion prior to decreasing to 15 µM adversely affected parasite growth and was avoided.
To measure PfEMP1 display, highly synchronous ring-stage CS2-GFP parasites preferentially expressing VAR2CSA (see Plasmids, Parasites, and Antibody Production) were obtained by incubation of erythrocytes with viable merozoites for 15 min [47], and parasites were treated with 916, 025, or DMSO using the dosage regime above. […] Labeled cells were washed with 0.1% casein/PBS and analyzed on a FACSCalibur cytometer (Becton-Dickinson, USA). Fluorescence in channel FL1 was used to measure parasite-infected erythrocytes (GFP), and fluorescence in channel FL4 was used to measure bound PAM1.4 IgG antibodies (Alexa 633) for each sample. The geometric mean fluorescence of uninfected erythrocytes (treated with secondary and tertiary but not primary antibodies) was deducted from the geometric mean fluorescence of infected erythrocytes using >100,000 cells per condition. […]

[2] = test system: Human Foreskin Fibroblasts (HFF); assay: Toxicity against Human Foreskin Fibroblasts; assay type: cell-based; settings: Fibroblast
[3] = test system: signal peptidase; assay: Signal peptide cleavage of SERA5s-GFP in parasites by immunoblot; assay type: cell-based, Plasmodium falciparum; settings: for Signal peptide cleavage of SERA5s-GFP, in words: 20 µM for 5 h
Description: This protein contains a signal peptide but lacks a PEXEL and is efficiently secreted to the parasitophorous vacuole (Figure S3B).
(§1) Trophozoites (30–34 h) expressing PfEMP3-GFP, KAHRP-GFP, or SERA5s-GFP were magnet-purified (Miltenyi Biotech), incubated with inhibitors in 400 µl total volume at 37°C for 1–5 h, treated with 0.09% saponin containing inhibitor, and washed pellets were solubilized in Laemmli's buffer, boiled for 3 min, and frozen at −20°C. Proteins were separated by SDS-PAGE, transferred to nitrocellulose and blocked in 10% skim milk/PBS-T, and probed with rat α-HA (Roche 3F10; 1∶1,000), mouse α-GFP (Roche; 1∶1,000), rabbit α-Aldolase (1∶1,000), rabbit α-HSP70 (1∶4,000), rabbit α-PfPMV (1∶1,000), or rabbit α-Hyp8 (1∶500) primary antibodies followed by horseradish peroxidase-conjugated secondary antibodies (Silenius) and detected by enhanced chemiluminescence (Amersham).

[4] = test system: cytoadherence of infected erythrocytes to CSA; assay: Static adhesion of infected erythrocytes to chondroitin sulfate A (CSA); assay type: cell-based, Plasmodium falciparum; settings: static conditions
Description: Adhesion assays were performed as described previously,[33]. Briefly, CSA (Sigma) was spotted at 50 µg/ml in triplicate into petri dishes, incubated overnight at 4°C, and blocked in 1% casein/PBS for 2 h. Inhibitor-treated erythrocytes were added to CSA-coated dishes and incubated for 45 min at 37°C. Dishes were washed four times with 5 ml warm RPMI-HEPES, fixed in 2% paraformaldehyde for 2 h, stained with 10% Giemsa for 15 min, and the number of adherent erythrocytes per mm^2 quantified by light microscopy counts. Assays were performed in triplicate.

[5] = molecular target: PMV in P. falciparum–infected erythrocytes (Plasmodium falciparum, UniProt Q8I6Z5); assay: PEXEL processing of GFP reporters in parasites by immunoblot; assay type: cell-based; settings: for PEXEL processing of KAHRP-GFP in parasites, in words / PEXEL processing of PfEMP3-GFP in parasites, in words: 5 h treatment, immunoblot; for PEXEL processing of KAHRP-GFP in parasites, in words: 20 and 50 µM; for PEXEL processing of PfEMP3-GFP in parasites, in words: up to 50 µM
Description: To assess whether 916 could inhibit PMV in P. falciparum–infected erythrocytes, parasites expressing the PEXEL protein P. falciparum erythrocyte membrane protein 3 (PfEMP3) fused to green fluorescent protein (GFP) were treated with increasing concentrations of inhibitor, and PEXEL processing was evaluated by immunoblot. […] A GFP-only band, representing degraded chimera in the food vacuole, was also observed at ∼26 kDa (Figure 3A).
as §1

[6] = test system: P. falciparum protein translation; assay: Global protein synthesis by radiolabeling parasite proteins after drug treatment; assay type: cell-based, Plasmodium falciparum; settings: for Global protein synthesis after 23 h treatment of rings: 15 µM or 50>15 µM, BFA 5 µg/ml; for Global protein synthesis after 5 h treatment of trophozoites: 15 or 50 µM, BFA 10 µg/ml, 15 min labeling
Description: To gain further insight into the effects of 916, 024, and 025 on parasites, we assessed global protein synthesis following drug treatment by radiolabeling parasite proteins. Treatment of trophozoites with inhibitor for 5 h prior to radiolabeling had no detectable effect on translation, even at 50 µM concentrations (Figure S4A), indicating the compounds are not direct inhibitors of the translation machinery. We next assessed protein synthesis following 23 h of drug treatment of ring stage parasites (aged 1–3 h old at the initiation of treatment). […] Indeed, Giemsa smears following treatment identified a small proportion of pyknotic parasites in the population (results not shown). […] It is possible that PMV inhibition by 916 treatment has a similar but weaker effect to BFA, in that it causes the accumulation of uncleaved PEXEL precursors in the ER, perturbing ER transport, and that this negatively affects translation by an ER stress response. An alternative possibility is that translation was decreased slightly as a result of parasites dying from 916-mediated impairment of erythrocyte remodeling. Either way, the profile for 916 was different to that seen for 024 and 025, even at 50 µM, indicating the latter analogs likely kill parasites via a different mechanism to 916.
Whole parasite proteins were radiolabeled by culturing magnet-purified trophozoites (wild-type 3D7 or expressing PfEMP3-GFP) in Met/Cys-free medium for 30 min at 37°C before addition of 800 µCi/ml ^35S-Met/Cys (Perkin/Elmer) to the medium for the indicated times. Pellets were snap frozen in ethanol/dry ice bath and stored at −80°C. For radiolabeling in the presence of PMV inhibitor, parasites were treated with 20 µM WEHI-916 for 5 h before labeling commenced. For pulse-chases, proteins were radiolabeled in the presence or absence of inhibitor, as above, before further culture in radiolabel-free, inhibitor-free complete medium for the indicated times at 37°C before snap freezing. Frozen samples were either solubilized in Laemmli's buffer (Figure S4) or solubilized in 1% Triton X-100/PBS with protease inhibitor cocktail (Roche) and PfEMP3-GFP species immunopurified with α-GFP agarose (MBL) at 4°C for 2 h (Figures 3 and S3), and proteins were resolved by SDS-PAGE, visualized by autoradiography (7-d exposures), and quantified using a GS-800 Calibrated Densitometer (Bio-Rad).

[7] = test system: HEpG2 cells; assay: Toxicity against human HEpG2 cells; assay type: cell-based; settings: toxicity against human cell line

PMV in P. falciparum–infected erythrocytes, sequence (Q8I6Z5 whole entry, the tested form may be a part): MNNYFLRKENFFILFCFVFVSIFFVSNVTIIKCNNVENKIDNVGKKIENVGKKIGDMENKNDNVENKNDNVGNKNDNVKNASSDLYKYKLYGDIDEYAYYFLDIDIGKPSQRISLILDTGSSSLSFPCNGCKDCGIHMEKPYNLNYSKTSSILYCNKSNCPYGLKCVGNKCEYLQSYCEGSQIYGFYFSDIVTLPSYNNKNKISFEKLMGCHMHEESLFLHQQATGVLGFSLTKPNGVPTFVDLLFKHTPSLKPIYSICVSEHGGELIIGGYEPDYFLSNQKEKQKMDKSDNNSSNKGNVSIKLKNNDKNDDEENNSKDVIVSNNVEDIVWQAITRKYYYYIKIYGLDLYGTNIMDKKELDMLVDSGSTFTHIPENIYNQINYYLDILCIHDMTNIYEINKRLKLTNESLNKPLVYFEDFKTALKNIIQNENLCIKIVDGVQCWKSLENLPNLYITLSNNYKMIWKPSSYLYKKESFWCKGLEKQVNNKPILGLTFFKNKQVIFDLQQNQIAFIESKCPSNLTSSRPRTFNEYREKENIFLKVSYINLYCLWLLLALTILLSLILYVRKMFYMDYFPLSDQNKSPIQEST

Structure (SMILES) | Effect on PfEMP1 surface expression, in words [1] | IC50 [2] | Signal peptide cleavage of SERA5s-GFP, in words [3] | Effect on PMV or signal peptidase activity in parasites, in words ([3]; concentrations up to 50 µM) | Effect on adhesion to CSA, in words [4] | PEXEL processing of KAHRP-GFP in parasites, in words [5] | PEXEL processing of PfEMP3-GFP in parasites, in words [5] | Global protein synthesis after 23 h treatment of rings [6] | Global protein synthesis after 5 h treatment of trophozoites [6] | IC50 [7] | Decrease of PfEMP1 surface expression ([1]; 24 h postinvasion) | Reduction of adhesion to CSA ([4]; compared to DMSO) | Inhibition of PfEMP3-GFP cleavage after 2 to 5 h of treatment ([5]; 2 to 5 h) | Inhibition of PfEMP3-GFP cleavage after 1 h of treatment ([5]; 1 h) | inhibition at 20 µM ([5]; read-out: Rescue of PfEMP3-GFP cleavage inhibition in inhibitor-free medium)
CC[C@H](C)[C@H](NC(=O)[C@@H](NC(=O)[C@H](CCCNC(=N)N)NS(=O)(=O)Cc1ccccc1)C(C)C)[C@@H](O)CC(=O)NCCc1ccccc1 [compound 025, PhCH2SO2Arg-Val-AHMHpA-NH(CH2)2Ph . TFA] | no effect | > 100 µM | no defect | no affect | no effect | no effect | no effect | no defect in global protein synthesis | no defect in global protein synthesis | > 100 µM |  |  |  |  | 
CC(C)C[C@H](NC(=O)[C@@H](NC(=O)[C@H](CCCNC(=N)N)NS(=O)(=O)Cc1ccccc1)C(C)C)[C@@H](O)CC(=O)NCCc1ccccc1 [compound 916, PhCH2SO2-Arg(NH2)-Val-Sta-NH(CH2)2Ph .TFA] |  | > 100 µM | no defect; also recorded: did not impair processing of the signal peptide |  |  | accumulation of both uncleaved (black arrow) and signal peptide-cleaved (red arrow) protein | dose-dependent increase in unprocessed PfEMP3-GFP | minor reduction in translation; also recorded: slight reduction in translation | no defect in global protein synthesis | > 100 µM | up to 55% | ~50% | uncleaved PfEMP3-GFP increased | No effect | ~50%
